Assay: xn = mol fraction of the nth substance listed
Conditions: 298.15 K, 101 kPa

O + CC(=O)[O-].CC[NH2+]CC
Conditions	speed of sound [m/s]
x1 = 1	1496

O + CC[NH2+]CC.O=S(=O)([O-])O
x1 = 1
Conditions	speed of sound [m/s]	viscosity [mPa·s]
–	1496	0.89

O + CC[NH+](CC)CC.O=S(=O)([O-])O
x1 = 1
Conditions	speed of sound [m/s]	viscosity [mPa·s]
–	1496	0.89

O + C[NH+](C)C.O=S(=O)([O-])O
x1 = 1
Conditions	speed of sound [m/s]	viscosity [mPa·s]
–	1496	0.89

CC(=O)[O-].CC[NH2+]CC + O
Conditions	speed of sound [m/s]
x2 = 0	1608
x2 = 0.0881	1602
x2 = 0.1637	1599
x2 = 0.2293	1598
x2 = 0.2866	1597
x2 = 0.3373	1596
x2 = 0.459	1594
x2 = 0.5741	1589
x2 = 0.6182	1585
x2 = 0.6562	1581
x2 = 0.7179	1572
x2 = 0.7433	1568
x2 = 0.8208	1551
x2 = 0.8735	1538
x2 = 0.8941	1532
x2 = 0.9197	1524
x2 = 0.9468	1516
x2 = 0.9634	1510

CC(=O)[O-].C[NH+](C)C + O
Conditions	speed of sound [m/s]	viscosity [mPa·s]
x1 = 0.0451	1499	1.199
x1 = 0.0651	1503	1.31
x1 = 0.0978	1504	1.5
x1 = 0.1283	1507	1.64
x1 = 0.1524	1510	1.75
x1 = 0.2133	1517	1.99
x1 = 0.3002	1525	2.24
x1 = 0.328	1527	2.31
x1 = 0.3943	1532	2.43
x1 = 0.4341	1534	2.48
x1 = 0.4797	1535	2.52
x1 = 0.5325	1537	2.56
x1 = 0.6292	1538	2.61
x1 = 0.7094	1539	2.62
x1 = 0.7556	1540	2.63
x1 = 0.9278	1542	2.69
x1 = 1	1544	2.76

CC[NH+](CC)CC.O=S(=O)([O-])O + O
Conditions	speed of sound [m/s]	viscosity [mPa·s]
x2 = 0	1874	235
x2 = 0.1228	1828	210
x2 = 0.2209	1819	195
x2 = 0.3679	1836	176
x2 = 0.4728	1844	162
x2 = 0.5147	1843	156
x2 = 0.6613	1795	129
x2 = 0.7011	1772	120
x2 = 0.7866	1702	95.2
x2 = 0.8075	1677	87.3
x2 = 0.869	1616	63.1
x2 = 0.9091	1581	48.8
x2 = 0.9432	1542	29.5
x2 = 0.9627	1526	19.9
x2 = 0.9743	1507	14.14

CC[NH2+]CC.O=S(=O)([O-])O + O
Conditions	speed of sound [m/s]	viscosity [mPa·s]
x2 = 0.1212	1426	30.4
x2 = 0.2183	1429	29.6
x2 = 0.2979	1433	30.1
x2 = 0.3644	1436	31
x2 = 0.4207	1437	31.3
x2 = 0.5476	1443	32.3
x2 = 0.6578	1441	31.4
x2 = 0.6979	1440	30.2
x2 = 0.7314	1439	28.8
x2 = 0.7841	1437	26
x2 = 0.8051	1438	24.6
x2 = 0.8673	1439	19.3
x2 = 0.9079	1444	15.14
x2 = 0.9233	1448	13.51
x2 = 0.9424	1454	11.06
x2 = 0.9622	1461	8.48
x2 = 0.9741	1468	6.19

C[NH+](C)C.O=S(=O)([O-])O + O
Conditions	speed of sound [m/s]	viscosity [mPa·s]
x2 = 0	1564	5.1
x2 = 0.1369	1553	4.86
x2 = 0.1942	1555	4.74
x2 = 0.2919	1558	4.53
x2 = 0.3723	1562	4.34
x2 = 0.4691	1565	4.05
x2 = 0.5219	1564	3.88
x2 = 0.6073	1556	3.54
x2 = 0.6734	1541	3.22
x2 = 0.7012	1531	3.08
x2 = 0.7878	1502	2.58
x2 = 0.8724	1472	2.01
x2 = 0.9027	1470	1.76
x2 = 0.9352	1466	1.49

From a compilation of properties of binary mixtures (doi:10.1021/jp502400z)
